Assay type in all cases: biochemical
Experiment [1] deals with T1, α-amylase from the human pancreas (Homo sapiens, UniProt P04746).
T1 construct: α-amylase from human pancreas; purchased Lee Biosolutions, Inc. Cat. No. 120-15; host or cells: human pancreas (tissue-derived)
T1 sequence (P04746 16-511): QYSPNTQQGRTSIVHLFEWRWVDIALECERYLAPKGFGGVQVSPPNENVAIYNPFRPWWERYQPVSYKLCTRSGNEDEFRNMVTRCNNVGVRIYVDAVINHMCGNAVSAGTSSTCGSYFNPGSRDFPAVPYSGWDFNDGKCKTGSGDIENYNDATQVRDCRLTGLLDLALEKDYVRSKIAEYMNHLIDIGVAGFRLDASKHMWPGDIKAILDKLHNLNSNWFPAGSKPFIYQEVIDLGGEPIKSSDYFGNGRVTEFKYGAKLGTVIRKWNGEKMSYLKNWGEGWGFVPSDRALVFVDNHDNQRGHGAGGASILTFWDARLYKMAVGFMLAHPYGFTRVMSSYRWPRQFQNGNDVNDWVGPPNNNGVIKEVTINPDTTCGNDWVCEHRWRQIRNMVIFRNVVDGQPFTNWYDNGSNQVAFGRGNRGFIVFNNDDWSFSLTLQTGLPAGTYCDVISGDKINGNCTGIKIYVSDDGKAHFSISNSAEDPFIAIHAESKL
The experiment in a line: HPLC microfractionation with post-column pancreatic α-amylase inhibition (dyed starch). To be noted: HPLC zone of R. acicularis leaf extract (July sample), 30 s fractions. On the procedure:
The probe of the extract was separated by HPLC, and fractions were eluted every 30 sec, collected, dried and mixed with pancreatic α-amylase. The hydrolytic activity of amylase was studied spectrophotometrically using starch azure as a substrate.
HPLC-PDA-ESI-tQ-MS conditions (Section 3.4) were used to separate the enlarged volume of R. acicularis leaf extract (July sample; 25 μL). The eluates (60 µL) were collected every 30 s by an automated fraction collector, a Shimadzu FRC-10A, and dried under a stream of N2. The eluate residue was dissolved in 50% methanol (50 µL) and added to 50 µL of water, 2.5 mL of Remazol-Brilliant-Blue-R-dyed starch (2% suspension in phosphate buffer, pH of 6.8) and 500 μL α-amylase from the human pancreas (0.4 U/mL), incubated for 50 min (37 °C) and the absorbance was measured at 620 nm. […] The value of 100% destruction of Remazol-Brilliant-Blue-R-dyed starch (or 0% content of intact starch compound) was measured for the eluate with a retention time of 0.5–1.0 min.

The target in experiment [2] is T2, porcine pancreatic lipase (Sus scrofa, UniProt P00591).
T2 construct: lipase from porcine pancreas; purchased Sigma-Aldrich L3126 (lipase); C3028 (colipase); host or cells: porcine pancreas (tissue-derived)
T2 sequence (P00591 1-450): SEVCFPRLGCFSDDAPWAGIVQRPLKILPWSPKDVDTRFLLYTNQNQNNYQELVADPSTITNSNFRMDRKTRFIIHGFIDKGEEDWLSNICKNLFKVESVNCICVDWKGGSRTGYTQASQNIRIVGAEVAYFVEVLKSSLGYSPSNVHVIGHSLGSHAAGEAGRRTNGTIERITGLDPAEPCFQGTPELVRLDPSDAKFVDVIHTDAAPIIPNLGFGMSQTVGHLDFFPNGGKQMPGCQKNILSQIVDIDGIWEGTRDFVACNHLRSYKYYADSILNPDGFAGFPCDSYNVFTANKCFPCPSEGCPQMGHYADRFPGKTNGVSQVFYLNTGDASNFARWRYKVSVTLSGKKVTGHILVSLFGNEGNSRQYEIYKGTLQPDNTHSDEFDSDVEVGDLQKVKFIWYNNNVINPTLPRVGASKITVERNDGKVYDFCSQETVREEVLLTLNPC
T2 sequence (P02703 23-112 partner): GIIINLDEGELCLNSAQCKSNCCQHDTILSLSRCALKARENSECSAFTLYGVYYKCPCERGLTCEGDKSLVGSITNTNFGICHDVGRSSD
As to the kind of experiment: Simulated gastrointestinal digestion of artificial substrate mixture, lipase activity (4-methylumbelliferone marker, HPLC-DAD). To be noted: doses of 1–1000 μg/mL.
From the text: To study the inhibitory potential of R. acicularis extracts on the digestive enzymes, we used the standardized static, simulated gastrointestinal digestion method of Minekus et al., based on physiologically relevant conditions of digestion [77]. In brief, the artificial substrate mixture, including ethylidene-p-nitrophenyl-α-D-maltoheptaoside (as a carbohydrate model), Nα-benzoyl-L-arginine-7-amino-4-methylcoumarin hydrochloride (as a protein model) and 4-methylumbelliferyl heptanoate (as a lipid model), was digested with extracts of R. acicularis leaves, flowers, roots and fruits (in doses of 100 μg/mL and 1000 μg/mL) by gastric and intestinal enzymatic and electrolyte mixtures (or juices). […] In a final step, concentrations of specific markers, such as p-nitrophenol, 7-amino-4-methylcoumarin and 4-methylumbelliferone, released from an artificial nutrient mixture, were analyzed by an HPLC-DAD assay. […]
For simulation, the known standardized static gastrointestinal digestion method of Minekus et al. [77] was used with no variation. […] The supernatant was analyzed using an HPLC-DAD assay (Section 3.7) to quantify the level of markers as p-nitrophenol, 7-amino-4-methylcoumarin and 4-methylumbelliferone formed from ethylidene-p-nitrophenyl-α-D-maltoheptaoside, Nα-benzoyl-L-arginine- 7-amino-4-methylcoumarin hydrochloride and 4-methylumbelliferyl heptanoate, respectively. […]

In experiment [3] the target is T3, porcine pancreas α-amylase (Sus scrofa, UniProt P00690).
T3 construct: α-amylase from porcine pancreas; purchased Sigma-Aldrich Cat. No. 6255; host or cells: porcine pancreas (tissue-derived)
T3 sequence (P00690 16-511): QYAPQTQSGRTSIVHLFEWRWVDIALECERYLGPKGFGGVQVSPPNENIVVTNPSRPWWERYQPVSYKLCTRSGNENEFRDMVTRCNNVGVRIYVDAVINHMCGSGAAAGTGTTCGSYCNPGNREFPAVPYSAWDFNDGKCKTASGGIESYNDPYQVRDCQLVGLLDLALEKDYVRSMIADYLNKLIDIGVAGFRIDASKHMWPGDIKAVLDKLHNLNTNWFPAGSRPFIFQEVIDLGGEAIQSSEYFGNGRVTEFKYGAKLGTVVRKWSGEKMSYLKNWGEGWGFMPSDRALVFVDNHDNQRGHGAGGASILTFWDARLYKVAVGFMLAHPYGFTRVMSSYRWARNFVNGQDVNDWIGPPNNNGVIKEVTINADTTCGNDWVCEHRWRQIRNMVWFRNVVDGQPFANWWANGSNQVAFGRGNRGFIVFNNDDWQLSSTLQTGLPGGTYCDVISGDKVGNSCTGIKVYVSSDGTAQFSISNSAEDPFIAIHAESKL
The experiment in a line: α-Amylase inhibitory activity, microplate spectrophotometric assay. As to conditions: mean ± S.D.; read-out: IC50 against porcine pancreas α-amylase (converted). From the text:
(§1) The α-amylase-inhibiting potential of rugosin D was studied using a microplate spectrophotometric assay with three mammalian amylases, including α-amylase from porcine pancreas, α-amylase from human saliva and α-amylase from human pancreas.

Experiment [4] addresses T4, human pancreas α-amylase (Homo sapiens, UniProt P04746).
T4 construct: α-amylase from human pancreas; purchased Lee Biosolutions, Inc. Cat. No. 120-15; host or cells: human pancreas (tissue-derived)
T4 sequence (P04746 16-511): T1 sequence (P04746 16-511)
The experiment is described as above. To be noted: mean ± S.D.; read-out: IC50 against human pancreas α-amylase (converted).
From the text: as §1

Experiment [5] concerns the target T5, human saliva α-amylase (Homo sapiens, UniProt P0DUB6).
T5 construct: α-amylase from human saliva; purchased Sigma-Aldrich Cat. No. 0521; host or cells: human saliva
T5 sequence (P0DUB6 16-511): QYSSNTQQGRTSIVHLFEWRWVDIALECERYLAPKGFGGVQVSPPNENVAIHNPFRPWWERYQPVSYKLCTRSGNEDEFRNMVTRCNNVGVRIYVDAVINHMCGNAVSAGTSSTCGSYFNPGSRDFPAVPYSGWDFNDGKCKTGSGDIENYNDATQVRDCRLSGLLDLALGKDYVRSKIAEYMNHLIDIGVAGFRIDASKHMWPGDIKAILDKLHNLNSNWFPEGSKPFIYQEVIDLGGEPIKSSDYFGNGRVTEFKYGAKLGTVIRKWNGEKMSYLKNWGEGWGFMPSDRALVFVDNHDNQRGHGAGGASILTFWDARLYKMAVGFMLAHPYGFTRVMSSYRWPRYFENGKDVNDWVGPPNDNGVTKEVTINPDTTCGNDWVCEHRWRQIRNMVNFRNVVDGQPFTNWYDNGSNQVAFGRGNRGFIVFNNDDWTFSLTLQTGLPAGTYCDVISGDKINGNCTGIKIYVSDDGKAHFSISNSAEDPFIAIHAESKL
The description is as above. To be noted: mean ± S.D.; read-out: IC50 against human saliva α-amylase (converted).
From the text: as §1

Turning to `O=C(O[C@@H]1O[C@@H]2COC(=O)c3cc(Oc4c(C(=O)O[C@@H]5O[C@@H]6COC(=O)c7cc(O)c(O)c(O)c7-c7c(cc(O)c(O)c7O)C(=O)O[C@H]6[C@H](OC(=O)c6cc(O)c(O)c(O)c6)[C@H]5OC(=O)c5cc(O)c(O)c(O)c5)cc(O)c(O)c4O)c(O)c(O)c3-c3c(cc(O)c(O)c3O)C(=O)O[C@H]2[C@H](OC(=O)c2cc(O)c(O)c(O)c2)[C@H]1OC(=O)c1cc(O)c(O)c(O)c1)c1cc(O)c(O)c(O)c1` [Rugosin D], in experiment [1], the “Starch protected (starch content as percentage of initial) after reaction with pancreatic amylase” value was 82–95%. In experiment [2], the “Inhibition of lipase activity in simulated digestion (in words)” value is given as “not substantially inhibited”. In addition, the IC50 (in general, the point on the concentration scale where inhibition reaches its midpoint) in experiment [3] was 17.1 µM; in experiment [4] it was 16.4 µM; in experiment [5], 36 µM.

Source of the values: article PMC8622385, “Metabolites of Prickly Rose: Chemodiversity and Digestive-Enzyme-Inhibiting Potential of Rosa acicularis and the Main Ellagitannin Rugosin D” (Plants, 2021).
